# From patent US20090170178A1, “Cell stimulating device and cell stimulating method” (priority 2003, published 2009)
# What was measured:
# Type in all cases: cell-based, mouse
# [1] = system: GABAA receptor β2 subunit mRNA in cultured granule cells; conditions: stimulation at 1.0 and 100 Hz; FIG. 9C; MK801 25 μM, CNQX 10 μM
# [2] = system: NMDA receptor NR2C subunit mRNA in cultured granule cells
# [3] = system: cultured granule cells (release of NRG); assay: Release of NRG into conditioned medium, read by CREB phosphorylation in granule cells; conditions: living cultured granule cells
# Description: In the case of FIG. 6D, CREB phosphorylation following stimulation of each conditioned medium was confirmed using cerebellar granule cells. Serum-starved cerebellar granule cells were treated (for 5 to 10 minutes) with conditioned media that had been recovered from the culture products of pontine nuclei neurons and granule cells. The conditioned medium recovered from pontine nuclei neurons was used for stimulation in the cases of a, b, and c. In the cases of d, e, and f, a conditioned medium was prepared from the culture product of granule cells.
# Stimulated granule cells were immobilized, followed by staining with a phospho-CREB antibody. The soluble forms that had been released after PMA stimulation (60 minutes) were concentrated and added to cultured granule cells. In panels c and f, the conditioned media should contain endogenous NRG and recombinant NRG. The difference between panels b and e indicates a function of NRG cleaved from recombinant mNRG. FIGS. 6E and 6F show the results of identification of an amino acid sequence that is necessary for proteolysis with the use of an ErbB and CREB phosphorylation assay system. The […] sequence was located above extracellular portions of transmembrane domains that were aligned in parallel. When the sequence was subjected to deletion or mutation of lysine to glycine, proteolysis efficiency was inhibited as shown in FIG. 6F. […]
SMILES,β2 transcription [1],Increase of NR2C transcription/expression [2],"NR2C transcription / expression of NR2C mRNA ([2]; level increased at 1 and 100 Hz, FIG. 9C, MK801 25 μM)",Obvious release of NRG [3]
N#Cc1cc2[nH]c(=O)c(=O)[nH]c2cc1[N+](=O)[O-] [CNQX],blocked,,,
C[C@]12N[C@H](Cc3ccccc31)c1ccccc12 [MK801],blocked,blocked NR2C elevation in a particularly strong manner,strongly blocked,
[Cl-].[K+] [KC1],,,,not observed
